Literature values as cited in paper PMC11212004 (Pharmacology Research & Perspectives, 2024).

Legend:
[1] = collagen‐induced arthritis (CIA) model

## CCC(=O)Nc1ccc(Cl)c(Cl)c1 [DCPA, 3,4‐dichloropropionanilide]
Orai calcium channel
  Orai calcium channel antagonism: functions as an Orai calcium channel antagonist
osteoclasts
  mineral resorption by osteoclasts in vitro: inhibits mineral resorption
[1]
  bone erosion and cartilage damage: reduces bone erosion and cartilage damage
Jurkat cells
  IL‐2 secretion: decreased NFAT‐dependent IL‐2 secretion
